Experimental data published in US20230165874A1, “ANTICOAGULANT COMPOUNDS AND METHODS AND DEVICES FOR THEIR PULMONARY USE” (priority 2020, published 2023).
Converted amounts (≈) assume the structure as drawn. Counter-ions that a name gives are not always drawn.

Experiments:
[1] = Coated balloon tissue drug concentration in vivo (LCMS); set-up: species or system porcine; conditions: pig, 300 μg
Text: The balloon (e.g., the balloon of a balloon-catheter of a stent-delivery system) was advanced to a site to be treated (e.g., an occluded or weakened section of a blood vessel to be opened up or supported by a stent) in the body of a subject and inflated to a desired inflation diameter. Before, during, and/or after inflation of the balloon, the balloon released the therapeutic composition to, into, or at the treatment site, or to, into, or at an area adjacent thereto, by any suitable mechanism (e.g., concentration gradient, diffusion, pressure, or mechanical force, or a combination thereof). […] The tissue concentration is shown in ng/mg tissue. The coated balloons were evaluated for drug delivery efficiency in an animal study. Drug transfer of the coated balloons into arterial segments were evaluated using harvested pig arteries. The arterial wall was separated after animal study. The arterial walls were then stored in an individual labeled vial. All samples were kept on dry ice until stored in the −80° C. freezer. All samples were then frozen to […] prior to being analyzed.

[2] = in vivo; conditions: pig, whole blood
[3] = Whole blood PK of drug eluting stents; conditions: for concentration at 180 min: 180 min. (3 hr); for concentration at 60 min: 60 min. (1 hr); for concentration at 120 min: 120 min. (2 hr)
[4] = system: porcine coronary artery; test: Histopathology scores (fibrin, injury, inflammation) of stented porcine coronary arteries; conditions: for inhibiting fibrin formation compared to bare metal control stents: at 7 days, released from stents
[5] = system: porcine coronary artery; test: Quantitative coronary angiography (late lumen loss, diameter stenosis) after stent implantation; conditions: at 7 days, released from stents
[6] = system: Calcium-reconstituted sheep blood; test: Activated clotting time (ACT), Hemochron Response; assay type: biochemical; conditions: individual drug at 0.6 ng/mg
Experimental: The activated clotting time (ACT) evaluation of anticoagulants was performed in Calcium-reconstituted sheep blood and recorded employing the Hemochron® Response device. […] A target amount of drug solution was then added into the test tube. […] The tube was gently shaken before being inserted into the Hemochron Response detector. The ACT read out was recorded and reported. The ACT of the control blood in the absence of any drug as first determined to establish a baseline. Then ACT was determined in the presence of different concentrations of the drug as a single component. Selected drug combinations, were then tested to evaluate for potential synergy in action between the two drugs.

[7] = in vivo; set-up: species or system Sprague-Dawley rats; conditions: male, Sprague-Dawley, rat; for Tmax: inhaled or intranasal
Experimental: At their assigned time-point, rats were anesthetized and subjected to exsanguination via an abdominal vessel and gross necropsy. Whole blood (two ˜1.5 ml aliquots, K2EDTA) was collected. The whole blood was stored frozen at −60° C. or lower until shipped overnight with dry ice for further evaluation.
Whole blood (two ˜100 μL aliquots, K2EDTA) was collected from the catheter of conscious rats for systemic pharmacokinetics (PK) at the time-points. Whole blood samples were stored at −60° C. or lower until shipped overnight on dry ice for further evaluation.

[8] = set-up: species or system Sprague-Dawley rats; conditions: male, Sprague-Dawley, rat, in vivo
Experimental: The lungs were removed and divided into left and right lung. Each half of the lung was weighed and placed in separate vials (for Pharmacokinetics analysis), snap frozen in liquid nitrogen and stored frozen at −60° C. or lower until shipped overnight on dry ice for further evaluation.
Each half of the lung was weighed and placed in separate vials (for Pharmacokinetics analysis), snap frozen in liquid nitrogen and stored frozen at −60° C. or lower until shipped overnight on dry ice to the sponsor for further evaluation.

[9] = Solubility in water / aqueous buffer / Captisol
[10] = physchem
[11] = pig, whole blood, other: drug eluting stent implanted in coronary artery, Whole blood concentration, SS16 stents, 1 H group
[12] = pig, whole blood, other: drug eluting stents implanted in coronary arteries, Whole blood concentration, SS16 stents, 1 D group
[13] = pig, whole blood, other: drug eluting stents implanted in coronary arteries, Whole blood concentration, SS17 stents, 1 D group
[14] = pig, whole blood, other: drug eluting stents implanted in coronary arteries, Whole blood concentration, SS17 stents, 1 H group

O=C(NC[C@H]1CN(c2ccc(N3CCOCC3=O)cc2)C(=O)O1)c1ccc(Cl)s1 [Rivaroxaban]
concentration at 15 min ([1]; coronary artery wall): 1230 ± 370 ng/g
concentration at 15 min ([1]; superficial femoral artery wall): 40600 ± 64700 ng/g
concentration at 15 min ([2]; other: drug eluting stent implanted in coronary artery): 3.32 ng/mL
concentration at 150 min ([2]; other: drug eluting stents implanted in coronary arteries): 2.08 ng/mL
Whole blood concentration ([3]; SS16 stents, 1 D group, 24 hr (Day 1)): BQL
Whole blood concentration ([3]; SS16 stents, 1 D group, Pre-implant): BQL
Whole blood concentration ([3]; SS16 stents, 1 H group, Pre-implant): BQL
Whole blood concentration ([3]; SS16 stents, 7 D group, Day 7): BQL
Whole blood concentration ([3]; SS16 stents, 7 D group, Pre-implant): BQL
Whole blood concentration ([3]; SS16 stents, 28 D group, Day 28): BQL
Whole blood concentration ([3]; SS16 stents, 28 D group, Pre-implant): BQL
Whole blood concentration ([3]; SS17 stents, 1 D group, Pre-implant): BQL
Whole blood concentration ([3]; SS17 stents, 1 H group, Pre-implant): BQL
Whole blood concentration ([3]; SS17 stents, 7 D group, Day 7): BQL
Whole blood concentration ([3]; SS17 stents, 7 D group, Pre-implant): BQL
Whole blood concentration ([3]; SS17 stents, 28 D group, Day 28): BQL
Whole blood concentration ([3]; SS17 stents, 28 D group, Pre-implant): BQL
systemic blood concentration versus systemic therapeutic concentrations (Cmax, Cmean, Ctrough) ([3]; drug eluting stents SS15, SS16, SS17): below
concentration at 30 min ([3]; pig, whole blood, other: drug eluting stent implanted in coronary artery, Whole blood concentration, SS16 stents, 1 D group): 3.76 ng/mL
concentration at 30 min [3, 11]: 3.34 ng/mL
concentration at 45 min [3, 11]: 3.68 ng/mL
concentration at 180 min ([3]; pig, whole blood, other: drug eluting stent implanted in coronary artery, Whole blood concentration, SS17 stents, 1 D group): 8.39 ng/mL
concentration at 4 h ([3]; pig, whole blood, other: drug eluting stent implanted in coronary artery, Whole blood concentration, SS17 stents, 1 D group, 4 hr): 3.74 ng/mL
concentration at 5 h ([3]; pig, whole blood, other: drug eluting stent implanted in coronary artery, Whole blood concentration, SS17 stents, 1 D group, 5 hr): 3.9 ng/mL
concentration at 6 h ([3]; pig, whole blood, other: drug eluting stent implanted in coronary artery, Whole blood concentration, SS17 stents, 1 D group, 6 hr): 3.1 ng/mL
concentration at 24 h ([3]; pig, whole blood, other: drug eluting stent implanted in coronary artery, Whole blood concentration, SS17 stents, 1 D group, 24 hr (Day 1)): 0.16 ng/mL
concentration at 45 min [3, 12]: 3.47 ng/mL
concentration at 60 min [3, 12]: 2.61 ng/mL
concentration at 90 min [3, 12]: 2.43 ng/mL
concentration at 120 min [3, 12]: 2.3 ng/mL
concentration at 180 min [3, 12]: 1.95 ng/mL
concentration at 4 hr ([3]; pig, whole blood, other: drug eluting stents implanted in coronary arteries, Whole blood concentration, SS16 stents, 1 D group, 4 hr): 1.23 ng/mL
concentration at 5 hr ([3]; pig, whole blood, other: drug eluting stents implanted in coronary arteries, Whole blood concentration, SS16 stents, 1 D group, 5 hr): 1.11 ng/mL
concentration at 6 hr ([3]; pig, whole blood, other: drug eluting stents implanted in coronary arteries, Whole blood concentration, SS16 stents, 1 D group, 6 hr): 1.03 ng/mL
concentration at 60 min ([3]; pig, whole blood, other: drug eluting stents implanted in coronary arteries, Whole blood concentration, SS16 stents, 1 H group): 4.08 ng/mL
concentration at 15 min [3, 13]: 24 ng/mL
concentration at 30 min [3, 13]: 20.1 ng/mL
concentration at 45 min [3, 13]: 19.5 ng/mL
concentration at 60 min [3, 13]: 18.5 ng/mL
concentration at 90 min [3, 13]: 15 ng/mL
concentration at 120 min [3, 13]: 11.6 ng/mL
concentration at 150 min ([3]; pig, whole blood, other: drug eluting stents implanted in coronary arteries, Whole blood concentration, SS17 stents, 1 D group, 150 min.): 11.3 ng/mL
concentration at 15 min [3, 14]: 10.8 ng/mL
concentration at 30 min [3, 14]: 8.44 ng/mL
concentration at 45 min [3, 14]: 7.82 ng/mL
concentration at 60 min [3, 14]: 7.54 ng/mL
inhibiting fibrin formation compared to control ([4]; at 7 days and/or at 28 days, faster release formulation): more effective
inhibiting fibrin formation compared to bare metal control stents [4]: more effective
inhibiting smooth muscle cell proliferation (LLL) compared to bare metal control stents [5]: not more effective

COc1ccc(-n2nc(C(N)=O)c3c2C(=O)N(c2ccc(N4CCCCC4=O)cc2)CC3)cc1 [Apixaban]
ACT [6]: 522
Tmax [7]: 5 to 10 min
time the drug content in lung tissue lasted [8]: up to 3.5 hours
time the drug content in lungs tissue lasted [8]: up to 1 hours
solubility ([9]; aqueous buffer, solubility in aqueous buffers, drug alone): ~28 µg/mL (≈ 60.9 µM)
solubility ([9]; water, solubility in water): ~28 µg/mL (≈ 60.9 µM)

CC1CNc2c(cccc2S(=O)(=O)N[C@@H](CCCNC(=N)N)C(=O)N2CC[C@@H](C)C[C@@H]2C(=O)O)C1 (some centres unmarked) [Argatroban]
ACT [6]: 301
Tmax [7]: ~60 min
time the drug content in lung tissue lasted [8]: more than 6 hours
time the drug content in lungs tissue lasted [8]: more than 5 hours
solubility ([10]; aqueous buffer, solubility in aqueous buffers): ~3000 µg/mL (≈ 5900 µM)
solubility ([10]; water, solubility in water): ~3000 µg/mL (≈ 5900 µM)
inhibiting fibrin formation compared to bare metal control stents [4]: not more effective

CN1CCCC(n2nc(Cc3ccc(Cl)cc3)c3ccccc3c2=O)CC1 (centres unmarked) [Azelastine, Azelastine hydrochloride]
time the systemic drug in whole blood lasted [7]: up to 2 hours
time the drug content in lungs tissue lasted [8]: more than 5 hours

CCN(CCO)CCCC(C)Nc1ccnc2cc(Cl)ccc12 (centres unmarked) [Hydroxychloroquine, Hydroxychloroquine sulfate]
time the systemic drug in whole blood lasted [7]: more than 5 hours
time the drug content in lungs tissue lasted [8]: more than 5 hours

Dalteparin
inhibiting fibrin formation compared to bare metal control stents [4]: not more effective
inhibiting smooth muscle cell proliferation (LLL) compared to bare metal control stents [5]: not more effective
